According to patent publication EP2077105A1, “Ophthalmic Micellar Compositions with Enhanced Stability” (Novagali Pharma S.A., priority 2008, dated 2009):

Test: Zeta potential of emulsion surface
Type: physicochemical
Details: 0.02% BAK and 0.002% CKC in emulsion
Description: All the eye drops were supplied by Novagali Pharma (Evry, France) and were sterile with physiological pH and osmolality. The present Applicants chose to compare 0.02% BAK to 0.002% CKC since these two QAC concentrations confer equivalent positive charge to the emulsion surface (zeta potential around 20 mV).

zeta potential: around 20 mV
SMILES: CCCCCCCCCCCCCCCC[N+](C)(C)Cc1ccccc1 [Cetalkonium chloride, cetalkonium chloride]
